The subject of assay [1] is LPS-induced acute lung injury mice. Nature of the assay: LPS-induced acute lung injury. Format: in vivo, C57BL/6J mice. How it is done: Male mice C57BL/6J aged 6-8 weeks and weighing 18-22 g were selected for the study. After fixing the mice, 50 μl of PBS was injected into the airways of the mice under direct laryngoscopic vision to form a control group, and 5 mg/kg of LPS (E.coil) was dissolved in 50 μl of PBS and dripped to form a model group. The experiments were divided into […], each having 6 mice, namely, NS group (control group, airway drip of 50 μl PBS), LPS group (model control group, airway drip of 50 μl LPS), LPS+10 mg/kg group (airway drip of 50 μl LPS and given 10 mg/kg TJ01-013 treatment), LPS+20 mg/kg group (airway drip of 50 μl LPS and given 20 mg/kg TJ01-013 treatment), LPS+30 mg/kg group (airway drip of 50 μl LPS and given 30 mg/kg TJ01-013 treatment), LPS+Sivelestat group (Positive control group, airway drip of 50 μl LPS and given 5 mg/kg Sivelestat treatment). All groups were administered […] by intraperitoneal injection in a volume of 200 μl 1 h and 7 h after airway drip, and the mice were euthanized 24 h later, bronchoalveolar lavage fluid (BALF) was taken, and the levels of inflammatory factors in the bronchoalveolar lavage fluid were detected and the changes in the transcriptional levels of tissue-associated inflammatory factors were observed. • (2) taking and observing of Bronchoalveolar lavage fluid (BALF)
Use chloral hydrate intraperitoneal injection to make mice die of rapid overdose anesthesia, place mice in supine position on the dissection table, fix the limbs, disinfect the skin of the neck of the mice with 75% ethanol, incise the skin along the midline of the neck, bluntly separate the subcutaneous connective tissues and muscles with hemostatic forceps, expose the trachea, separate connective tissues on both sides of the trachea and between the trachea and the esophagus, and free the trachea. Two surgical sutures about 20 cm long were threaded between the trachea and esophagus. A 24G intravenous cannula needle was inserted at a 30-degree angle from the connective tissue membrane between the thyroid cartilage and the cricoid cartilage, and the intravenous cannula needle was delivered in the direction of the tracheal eminence. A surgical suture placed between the tracheo-esophageal was ligated at the entry of the cannula into the trachea and at the distal end of the cannula, respectively, and tied as tightly as possible to secure the cannula and trachea. 0.8 ml of PBS was aspirated with a 1 ml syringe, and the syringe was connected to the inlet end of the intravenous cannula needle, and PBS was slowly injected into the trachea, stayed for 30 seconds and then was withdrawn back, and a milky white frothy liquid withdrawn back was visible, and the lavage was repeated three times, and the liquid was centrifuged at 1500 rpm/min for 10 min, and the supernatant was used for cytokine assay, and the cell precipitates were coated after resuspending with PBS for Giemsa staining and sorting and counting.
The levels of inflammatory factors (inflammatory factors including IL-6, CXCL1, CXCL2, etc.) in BALF supernatant were detected according to the instructions of the ELISA test kit.
The obtained cDNA was amplified on a 96-well PCR plate using a LightCycler 480 system, and the gene level was determined by using glyceraldehyde 3-phosphate dehydrogenase (GAPDH) as an internal standard.

Assay [2] deals with cisplatin-induced hearing impairment model in mice. Nature of the assay: Cisplatin-induced hearing damage. The assay is classed as in vivo, C57 mice. The procedure: Select 8-week-old C57 male mice weighing 22-25 g, according to the previous studies and the previous laboratory exploration, mice were induced to have hearing damage by 4 mg/kg of cisplatin, and a certain amount of cisplatin was dissolved in 0.9% saline of the model control group, and then intraperitoneally injected into the mice for four consecutive days, with the volume of the intraperitoneal injection of 5 ml/kg, and then intraperitoneally injected into the mice for four consecutive days with the volume of 0.9% saline for recovery and alleviation, the injection was prescribed at the same time point every day, and no treatment was done on the 9th day to conduct hearing test or dissect the mice for subsequent experiments. […]
The mice were sacrificed by neck dissection, and the cochlea was removed from mice by neck dissection, and processed under the anatomical microscope to expose the round window and the oval window, the cochlear apex was perforate, and the round window, the oval window and the cochlear apex were perfused with 4% PFA solution, and then the whole cochlea was put into 4% PFA solution for fixation, and was shaken overnight at 4° C. […] Finally, photographs were taken using a fluorescence microscope.

[3] abbreviates: TJ01-013 10, 20, 30 mg/kg, Sivelestat 5 mg/kg, FIG. 26.
[4] abbreviates: concentration-dependent for TJ01-013, FIG. 27.

As for `O=C(O)C[S+]([O-])c1cc(NS(=O)(=O)c2ccc(Br)cc2)c2ccccc2c1O` (stereo not drawn) [I-1], in assay [1] (FIG. 25), the “number of macrophages in alveolar lavage fluid” value is “no significant effect” and the “number of neutrophils in alveolar lavage fluid” value is reported as “significantly reduce”. In assay [1] (TJ01-013 20 mg/kg, FIG. 25), the “total number of cells in alveolar lavage fluid, compared with positive control Sivelestat sodium” value is given as “decreased to a better extent”. Besides, in assay [1] (setting [3]), the “CXCL1 level in alveolar lavage fluid (ELISA)” value is listed as “significantly decreased in a concentration-dependent manner”, the “CXCL2 level in alveolar lavage fluid (ELISA)” value is “significantly decreased in a concentration-dependent manner” and the “IL-6 level in alveolar lavage fluid (ELISA)” value is “significantly decreased in a concentration-dependent manner”. The “total number of cells in alveolar lavage fluid” value in assay [1] (after LPS, intraperitoneal TJ01-013, FIG. 25) is “decreased”. Further, in assay [1] (setting [4]), the “CXCL1 transcript level in lung tissue” value was “significantly decreased”, the “CXCL2 transcript level in lung tissue” value is reported as “significantly decreased” and the “IL-6 transcript level in lung tissue” value is given as “significantly decreased”. In assay [2] (4, 8, 16, 24, 32 kHz, 30 mg/kg gavage, 8 days, FIG. 46), the “hearing thresholds (ABR)” value is listed as “significantly decreased”. Besides, the “loss of hair cells (Myo7a, cochlear basement membrane)” value in assay [2] (apical, middle, base gyrus, FIG. 47) is given as “significantly reduced the loss of hair cells”.

The values are drawn from patent US20260027073A1, “USE OF SMALL-MOLECULE COMPOUND HAVING NAPHTHYLAMINE STRUCTURE” (HANGZHOU PHECDAMED CO., LTD., priority 2023, published 2026).
